Molecules are shown by their SMILES.

The test system of assay [1] is apomorphine-induced cage climbing in mice. Nature of the assay: Apomorphine-induced climbing behavior in mice. The format is in vivo. As to conditions: ip 30 min prior to apomorphine (1 mg/kg, sc); for ED50: Mus musculus, read-out: Inhibitory effects on apomorphine-induced climbing behavior ED50 (mg/kg, ip). As for the experimental part:
When mice were treated with apomorphine (1 mg/kg, sc), a potent dopamine receptor agonist, and were put into cylindrical cages (diameter, 12 cm/height, 14 cm) with the floor and wall consisting of metal bars and covered with a lid, they begin to perform repeatedly a psychotic behavior of ‘cage climbing’. Their climbing behaviors were monitored every 10 min for 30 min and scored by 4-point rating scale (0˜3 points) depending on the extent of the behavior (Costentin, J. et al., Nature 1975, 257, 405-7; Protais, P. et al., Psychopharmacology 1976, 50, 1-6).
The compounds were injected intraperitoneally into mice 30 min prior to apomorphine administration. The inhibitory effects of the compounds against control group were measured and each ED50 was calculated therefrom.

The target of another assay is 5-HT7 receptor (Homo sapiens, UniProt P34969). Put plainly: Serotonin receptor binding experiment, 5-HT7. Conditions: [3H]LSD 3 nM, 90 min at 27° C.; read-out: Receptor affinity (IC50, nM) 5-HT7. Details: species or system human or rat. As for the experimental part: (§1) The measurement of affinity for serotonin 5-HT receptor family was performed according to the experimental conditions as specified in Table 2 below using the method same as in Experimental Example 1 above.
Chain of 5-HT7 receptor (P34969 whole entry): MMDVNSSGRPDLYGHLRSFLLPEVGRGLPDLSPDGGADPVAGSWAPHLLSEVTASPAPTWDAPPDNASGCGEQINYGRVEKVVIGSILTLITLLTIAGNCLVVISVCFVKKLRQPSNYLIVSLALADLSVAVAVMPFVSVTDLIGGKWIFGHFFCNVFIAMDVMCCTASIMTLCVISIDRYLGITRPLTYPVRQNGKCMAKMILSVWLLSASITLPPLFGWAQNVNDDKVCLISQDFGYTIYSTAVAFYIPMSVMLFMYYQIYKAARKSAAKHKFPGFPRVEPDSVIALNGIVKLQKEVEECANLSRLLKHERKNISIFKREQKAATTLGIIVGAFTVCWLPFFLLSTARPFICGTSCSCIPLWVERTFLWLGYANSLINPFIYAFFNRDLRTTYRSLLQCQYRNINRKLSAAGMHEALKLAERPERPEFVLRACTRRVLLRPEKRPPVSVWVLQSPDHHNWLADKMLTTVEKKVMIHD

The target of assay [2] is T1, Human recombinant dopamine D3 receptor (Homo sapiens, UniProt P35462).
T1 construct: purchased Euroscreen; host or cells: CHO cell line
T1 sequence (P35462 whole entry): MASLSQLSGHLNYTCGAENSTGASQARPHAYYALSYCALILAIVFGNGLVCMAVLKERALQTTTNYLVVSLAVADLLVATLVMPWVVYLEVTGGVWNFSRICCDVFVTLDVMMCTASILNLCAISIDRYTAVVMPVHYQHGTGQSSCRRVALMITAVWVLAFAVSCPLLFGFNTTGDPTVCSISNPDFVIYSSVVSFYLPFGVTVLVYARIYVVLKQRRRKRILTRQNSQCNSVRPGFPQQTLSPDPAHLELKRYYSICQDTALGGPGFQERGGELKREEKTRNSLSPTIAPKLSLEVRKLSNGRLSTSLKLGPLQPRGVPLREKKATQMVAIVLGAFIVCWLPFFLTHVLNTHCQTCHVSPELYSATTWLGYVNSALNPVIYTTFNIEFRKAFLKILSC
Nature of the assay: Measurement of affinity for dopamine D3 receptor ([3H]spiperone binding). As to conditions: [3H]spiperone 0.8 nM, CHO cell line, 60 min at 27° C. As to the method:
Human recombinant dopamine D2 and D3 receptors, which were expressed in CHO cell lines, respectively, were purchased from PerkinElmer and Euroscreen, respectively.
50 mM Tris-HCl (pH 7.4) containing […] and 1 mM EDTA was used as a buffer solution for the measurement of affinity for dopamine D2 receptor. 50 mM Tris-HCl (pH 7.4) containing 5 mM MgCl2, 5 mM EDTA, 5 mM KCl, 1.5 mM CaCl2 and 120 mM NaCl was used as a buffer solution for the measurement of affinity for dopamine D3 receptor. For measurement of non-specific binding, 10 μM haloperidol (haloperidol) was used.

Assay [3] concerns the target T2, human recombinant dopamine D4.2 receptor (Homo sapiens, UniProt P21917, DEL265-296).
T2 construct: purchased PerkinElmer Life and Analytical Sciences, USA; host or cells: CHO-K1 cells
T2 sequence (P21917 with tags, fused parts or gaps DEL265-296): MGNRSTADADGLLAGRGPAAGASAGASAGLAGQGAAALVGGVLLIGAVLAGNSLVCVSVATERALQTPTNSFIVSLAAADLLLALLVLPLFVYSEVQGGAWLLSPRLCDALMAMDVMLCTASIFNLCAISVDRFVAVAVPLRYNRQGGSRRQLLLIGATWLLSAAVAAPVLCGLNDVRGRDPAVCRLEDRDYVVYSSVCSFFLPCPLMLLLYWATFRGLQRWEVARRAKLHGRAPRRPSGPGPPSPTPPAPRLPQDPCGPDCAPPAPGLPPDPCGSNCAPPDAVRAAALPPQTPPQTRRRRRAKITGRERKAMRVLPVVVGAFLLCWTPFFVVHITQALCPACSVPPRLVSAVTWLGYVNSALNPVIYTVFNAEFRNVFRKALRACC
Nature of the assay: Measurement of affinity for dopamine D4 receptor ([3H]YM-09151-2 binding). Conditions: [3H]YM-09151-2 0.1 nM, receptor expressed in CHO-K1 cells, 120 min at 25° C. As to the method: The affinities of the compounds for dopamine D4 receptor were measured by using human recombinant dopamine D4.2 receptor (PerkinElmer Life and Analytical Sciences, USA) expressed in CHO-K1 cells, and [^3H]YM-09151-2 (PerkinElmer) was used as a radioactive ligand.
50 mM Tris-HCl (pH 7.4) containing 120 mM NaCl, 5 mM KCl, 5 mM MgCl2 and 1 mM EDTA was used as a buffer solution for the analysis of receptor binding. [^3H] YM-09151-2 binding reactions were performed in a 96-well plate format.
For drug screening, a reaction mixture with a final volume of 0.25 mL was prepared by mixing a compound of the present invention, D4 receptor membrane (43 μg/well), [^3H] YM-09151-2 (0.1 nM), 50 mM Tris-HCl (pH 7.4) and the like. The reaction mixture was incubated for 120 min at 25° C., and then promptly passed through Wallac GF/C glass fiber filter (Wallac, Finland), which was already wetted in 0.5% PEI, by using Inotech harvester (Inotech) to terminate the reaction, and then washed with cold 50 mM Tris-HCl buffer solution. The filter was then covered with MeltiLex, sealed in a sample bag, and then dried in an oven. The radioactivity retained in the filter was finally counted using MicroBeta Plus, Wallac.
The affinity (IC50) of a compound for the receptor was calculated via nonlinear regression analysis of sigmoidal dose-response equation with the data obtained from three independent experiments (GraphPad Prism Program, San Diego, USA), which are carried out using 7-8 different concentrations of the compound in duplicate. Nonspecific binding was measured in the presence of 10 μM clozapine.

Another assay addresses 5-HT2A receptor (Homo sapiens, UniProt P28223). Put plainly: Serotonin receptor binding experiment, 5-HT2A. Further details: species or system human or rat. Conditions: [3H]ketanserin 1 nM, 15 min at 37° C.; read-out: Receptor affinity (IC50, nM) 5-HT2A. As to the method: as §1

Chain of 5-HT2A receptor (P28223 whole entry): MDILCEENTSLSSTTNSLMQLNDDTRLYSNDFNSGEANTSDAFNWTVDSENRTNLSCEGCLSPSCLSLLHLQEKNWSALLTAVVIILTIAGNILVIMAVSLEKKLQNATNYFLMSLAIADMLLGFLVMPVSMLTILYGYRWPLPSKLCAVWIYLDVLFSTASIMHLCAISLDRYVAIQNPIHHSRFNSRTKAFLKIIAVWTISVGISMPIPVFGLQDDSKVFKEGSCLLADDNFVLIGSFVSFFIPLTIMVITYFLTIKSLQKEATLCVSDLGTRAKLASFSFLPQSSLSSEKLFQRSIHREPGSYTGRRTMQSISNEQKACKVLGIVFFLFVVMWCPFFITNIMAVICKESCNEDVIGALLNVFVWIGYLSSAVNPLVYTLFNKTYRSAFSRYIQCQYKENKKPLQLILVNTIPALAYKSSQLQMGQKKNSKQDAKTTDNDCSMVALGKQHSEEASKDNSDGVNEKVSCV

Turning to `CCCc1cc(CCCN2CCN(c3ccccc3)CC2)n(-c2ccccc2)n1` [Compound 155, 1-phenyl-4-(3-(1-phenyl-3-propyl-1H-pyrazol-5-yl)propyl)piperazine], the ED50 in assay [1] was 8.8 to 14.5 mg/kg. For the same compound, the “Inhibitory effects on apomorphine-induced climbing behavior ED50 (mg/kg, ip)” value (from here on “Inhibitory effects”) in assay [1] is listed as 10.7 mg/kg. Further, the IC50 on 5-HT7 receptor came out at 259 nM; in assay [2] it was 461 nM; in assay [3], 5.9 nM; on 5-HT2A receptor, 35 nM.
Regarding `CCCc1cc(CCCN2CCN(c3ccccc3F)CC2)n(-c2ccccc2)n1` [Compound 156, 1-(2-fluorophenyl)-4-(3-(1-phenyl-3-propyl-1H-pyrazol-5-yl)propyl)piperazine], the ED50 in assay [1] lay in the range of 8.8 to 14.5 mg/kg. The “Inhibitory effects” value in assay [1] stood at 9.6 mg/kg. The IC50 on 5-HT7 receptor stood at 313 nM; in assay [2], 87 nM; in assay [3], 3.5 nM; on 5-HT2A receptor, 152 nM.
As for `CCCc1cc(CCCN2CCN(c3ccc(C)c(C)c3)CC2)n(-c2ccccc2)n1` [Compound 159, 1-(3,4-dimethylphenyl)-4-(3-(1-phenyl-3-propyl-1H-pyrazol-5-yl)propyl)piperazine], the ED50 in assay [1] fell in the range of 8.8 to 14.5 mg/kg. Besides, the “Inhibitory effects” value in assay [1] amounted to 9.1 mg/kg. Further, the IC50 was 195 nM at 5-HT7 receptor, 131 nM in assay [2], 1.3 nM in assay [3] and 8 nM on 5-HT2A receptor.
With `CCCc1cc(CCCN2CCN(c3cccc(C)c3C)CC2)n(-c2ccccc2)n1` [Compound 160, 1-(2,3-dimethylphenyl)-4-(3-(1-phenyl-3-propyl-1H-pyrazol-5-yl)propyl)piperazine], the ED50 in assay [1] was in the range of 8.8 to 14.5 mg/kg. In assay [1], the “Inhibitory effects” value is 10.6 mg/kg. Besides, the IC50 turned out to be 84 nM on 5-HT7 receptor, 229 nM in assay [2], 2.9 nM in assay [3] and 65 nM at 5-HT2A receptor.
For `CC(C)c1cc(CCCN2CCN(c3ccccc3F)CC2)n(-c2ccccc2)n1` [Compound 177, 1-(2-fluorophenyl)-4-(3-(1-phenyl-3-isopropyl-1H-pyrazol-5-yl)propyl)piperazine], in assay [1], the ED50 is 8.8 to 14.5 mg/kg. In addition, in assay [1], the “Inhibitory effects” value was 8.8 mg/kg. Besides, the IC50 was determined as 252 nM on 5-HT7 receptor, 687 nM in assay [2], 8 nM in assay [3] and 27 nM at 5-HT2A receptor.

Usually IC50 stands for the point on the concentration scale where inhibition reaches its midpoint.
